Consider nine molecules from patent publication US10329272B2 (priority 2015, dated 2019).

One data set relates to Sclerotinia sclerotiorum. In words: Sclerotinia sclerotiorum/Liquid Culture (Cottony Rot). The following applies: liquid culture, growth inhibition photometrically 3-4 days after application, compared to untreated control. Type of data set: cell-based. The method, then: Sclerotinia sclerotiorum/Liquid Culture (Cottony Rot)
Mycelia fragments of a newly grown liquid culture of the fungus are directly mixed into nutrient broth (Vogels broth). After placing a (DMSO) solution of test compound into a microtiter plate (96-well format) the nutrient broth containing the fungal material is added. The test plates are incubated at 24° C. and the inhibition of growth is determined photometrically 3-4 days after application.

Data set [1] relates to Botryotinia fuckeliana (Botrytis cinerea). Description: Botryotinia fuckeliana (Botrytis cinerea)/Liquid Culture (Gray Mould). Type of data set: cell-based. The following applies: liquid culture, growth inhibition photometrically 3-4 days after application, compared to untreated control. On the procedure: Biological Examples Botryotinia fuckeliana (Botrytis cinerea)/Liquid Culture (Gray Mould)
Conidia of the fungus from cryogenic storage are directly mixed into nutrient broth (Vogels broth). After placing a (DMSO) solution of test compound into a microtiter plate (96-well format), the nutrient broth containing the fungal spores is added. The test plates are incubated at 24° C. and the inhibition of growth is determined photometrically 3-4 days after application.

The subject of data set [2] is Magnaporthe grisea (Pyricularia oryzae). Description: microbe, parasite or virus in culture. Type of data set: cell-based. Conditions: read-out: control of Magnaporthe grisea.
In a further data set the test system is Fusarium culmorum. Description: microbe, parasite or virus in culture. Type of data set: cell-based. Conditions: read-out: control of Fusarium culmorum.
Data set [3] concerns Mycosphaerella graminicola (Septoria tritici). Description: microbe, parasite or virus in culture. Type of data set: cell-based. Conditions: Zymoseptoria tritici, read-out: control of Mycosphaerella graminicola.
The next data set has as its system Gaeumannomyces graminis. In words: Gaeumannomyces Graminis/Liquid Culture (Take-all of Cereals). Type of data set: cell-based. The following applies: liquid culture, growth inhibition photometrically 4-5 days after application, compared to untreated control. The method, then:
Gaeumannomyces Graminis/Liquid Culture (Take-all of Cereals)
Mycelial fragments of the fungus from cryogenic storage were directly mixed into nutrient broth (PDB potato dextrose broth). After placing a (DMSO) solution of test compound into a microtiter plate (96-well format), the nutrient broth containing the fungal spores is added. The test plates are incubated at 24° C. and the inhibition of growth is determined photometrically 4-5 days after application.

Data set [4] relates to Glomerella lagenarium (Colletotrichum lagenarium). Description: Glomerella Lagenarium (Colletotrichum Lagenarium)/Liquid Culture (Anthracnose). Type of data set: cell-based. The following applies: Colletotrichum orbiculare, liquid culture, growth inhibition photometrically 3-4 days after application, compared to untreated control. The method, then: Glomerella Lagenarium (Colletotrichum Lagenarium)/Liquid Culture (Anthracnose)
Conidia of the fungus from cryogenic storage are directly mixed into nutrient broth (PDB potato dextrose broth). After placing a (DMSO) solution of test compound into a microtiter plate (96-well format), the nutrient broth containing the fungal spores is added. The test plates are incubated at 24° C. and the inhibition of growth is measured photometrically 3-4 days after application.

Data set [5] has as its system Monographella nivalis (Microdochium nivale). In words: Monographella Nivalis (Microdochium Nivale)/Liquid Culture (Foot Rot Cereals). Type of data set: cell-based. Conditions: liquid culture, growth inhibition photometrically 4-5 days after application, compared to untreated control. The method, then: Monographella Nivalis (Microdochium Nivale)/Liquid Culture (Foot Rot Cereals)
(§1) Conidia of the fungus from cryogenic storage are directly mixed into nutrient broth (PDB potato dextrose broth). After placing a (DMSO) solution of test compound into a microtiter plate (96-well format), the nutrient broth containing the fungal spores is added. The test plates are incubated at 24° C. and the inhibition of growth is determined photometrically 4-5 days after application.

The subject of data set [6] is Mycosphaerella arachidis (Cercospora arachidicola). Description: Mycosphaerella arachidis (Cercospora arachidicola)/Liquid Culture (Early Leaf Spot). Type of data set: cell-based. The following applies: 20 ppm; liquid culture, growth inhibition photometrically 4-5 days after application; compared to untreated control. On the procedure:
Mycosphaerella arachidis (Cercospora arachidicola)/Liquid Culture (Early Leaf Spot)
as §1

For orientation: melting point means the temperature, or range, at which the solid turns liquid. For `Cc1ccc2c(C3=NC(C)(C)C(C)(C)c4c(F)cccc43)n(C)nc2c1` [Compound E-28, 1-(2,6-dimethylindazol-3-yl)-5-fluoro-3,3,4,4-tetramethyl-isoquinoline], the melting point lay within 137 to 138 °C. The molecule also displayed an inhibition of growth at 20 ppm with Sclerotinia sclerotiorum not below 80%. The inhibition of growth at 20 ppm in data set [1] is not below 80%. In data set [2], the inhibition of growth at 20 ppm was not below 80%. In the data set on Fusarium culmorum, the inhibition of growth at 20 ppm was not below 80%. The inhibition of growth at 20 ppm in data set [3] was not below 80%. Also, the inhibition of growth at 20 ppm in the data set on Gaeumannomyces graminis is not below 80%. For the same molecule, the inhibition of growth at 20 ppm in [4] was not below 80%. The molecule also displayed an inhibition of growth at 20 ppm in data set [5] not below 80%.

The molecule `Cc1ccc2c(C3=NC(C)(C)C(C)(C)c4c(F)cccc43)n(C)nc2c1Cl` [Compound E-27, 1-(7-chloro-2,6-dimethyl-indazol-3-yl)-5-fluoro-3,3,4,4-tetramethyl-isoquinoline] gave a melting point of 113 to 116 °C. In addition, in the data set with Sclerotinia sclerotiorum, the inhibition of growth at 20 ppm was not below 80%. The molecule further yielded an inhibition of growth at 20 ppm in data set [1] not below 80%. For the same molecule, the inhibition of growth at 20 ppm in data set [2] was not below 80%. For the same molecule, the inhibition of growth at 20 ppm in the data set with Fusarium culmorum is not below 80%. Also, the inhibition of growth at 20 ppm in data set [3] was not below 80%. In the data set on Gaeumannomyces graminis, the inhibition of growth at 20 ppm is not below 80%. In data set [4], this molecule came in with an inhibition of growth at 20 ppm not below 80%. Further, the inhibition of growth at 20 ppm in [5] is not below 80%.

`Cc1ccc2c(C3=NC(C)(C)C(C)(C)c4c(F)cccc43)n(C)nc2c1C` [Compound E-30, 5-fluoro-3,3,4,4-tetramethyl-1-(2,6,7-trimethylindazol-3-yl)isoquinoline]: the melting point was in the range of 111 to 113 °C. Besides, the inhibition of growth at 20 ppm in the data set with Sclerotinia sclerotiorum was not below 80%. Also, the inhibition of growth at 20 ppm in [1] is not below 80%. The inhibition of growth at 20 ppm in data set [2] was not below 80%. In addition, the inhibition of growth at 20 ppm in data set [3] was not below 80%. Also, the inhibition of growth at 20 ppm in [4] is not below 80%. The same molecule yielded an inhibition of growth at 20 ppm in data set [5] not below 80%.

For `Cc1cccc2c(C3=NC(C)(C)C(C)(C)c4c(F)cccc43)n(C)nc12` [Compound E-9, 1-(2,7-dimethylindazol-3-yl)-5-fluoro-3,3,4,4-tetramethyl-isoquinoline], the inhibition of growth at 20 ppm (with Sclerotinia sclerotiorum; in data set [1]; in data set [2]; with Fusarium culmorum; in data set [3]; with Gaeumannomyces graminis) was not below 80% each time. For the same molecule, the inhibition of growth at 20 ppm in data set [4] and in data set [5] was not below 80% throughout.

On to `Cn1nc2c(Cl)c(Cl)ccc2c1C1=NC(C)(C)C(C)(C)c2c(F)cccc21` [Compound E-23, 1-(6,7-dichloro-2-methyl-indazol-3-yl)-5-fluoro-3,3,4,4-tetramethyl-isoquinoline], for which the inhibition of growth at 20 ppm (with Sclerotinia sclerotiorum; in data set [1]; in [2]; in [3]; with Gaeumannomyces graminis; in data set [4]) was not below 80% in each case. For the same molecule, the inhibition of growth at 20 ppm in data set [5] was not below 80%.

`Cn1nc2ccccc2c1C1=NC(C)(C)C(C)(C)c2c(F)cccc21` [Compound E-1, 5-fluoro-3,3,4,4-tetramethyl-1-(2-methylindazol-3-yl)isoquinoline] came in with a melting point of 113 to 115 °C. Further, the “control of Mycosphaerella arachidis” value in data set [6] is “at least 80%”. The molecule also registered an inhibition of growth at 20 ppm with Sclerotinia sclerotiorum not below 80%. The inhibition of growth at 20 ppm in data set [1] is not below 80%. Moreover, in [2], the inhibition of growth at 20 ppm is not below 80%. In addition, in the data set on Fusarium culmorum, the inhibition of growth at 20 ppm is not below 80%. Also, the inhibition of growth at 20 ppm in data set [3] is not below 80%. This molecule registered an inhibition of growth at 20 ppm in the data set with Gaeumannomyces graminis not below 80%. Moreover, in [4], the inhibition of growth at 20 ppm is not below 80%. In data set [5], this molecule returned an inhibition of growth at 20 ppm not below 80%.

As for `Cn1nc2c(Br)cccc2c1C1=NC(C)(C)C(C)(C)c2c(F)cccc21` [Compound E-8, 1-(7-bromo-2-methyl-indazol-3-yl)-5-fluoro-3,3,4,4-tetramethyl-isoquinoline], the inhibition of growth at 20 ppm (with Sclerotinia sclerotiorum; in data set [1]; in [2]; in data set [3]; in data set [4]; in [5]) was not below 80% in each case.

Take `Cn1nc2c(Br)cccc2c1C1=NC(C)(C)Cc2ccccc21` [Compound E-5, 1-(7-bromo-2-methyl-indazol-3-yl)-3,3-dimethyl-4H-isoquinoline]: the melting point lay in the range of 161 to 162 °C. Also, in the data set on Sclerotinia sclerotiorum, the inhibition of growth at 20 ppm was not below 80%. This molecule came in with an inhibition of growth at 20 ppm in [1] not below 80%. The inhibition of growth at 20 ppm in data set [2] is not below 80%. For the same molecule, the inhibition of growth at 20 ppm in data set [3] was not below 80%. Also, the inhibition of growth at 20 ppm in data set [5] is not below 80%.

`Cn1nc2c(Cl)cccc2c1C1=NC(C)(C)C(C)(C)c2c(F)cccc21` [Compound E-22, 1-(7-chloro-2-methyl-indazol-3-yl)-5-fluoro-3,3,4,4-tetramethyl-isoquinoline]: the melting point lay within 45 to 47 °C. For the same molecule, in [1], the inhibition of growth at 20 ppm is not below 80%. The inhibition of growth at 20 ppm in [2] is not below 80%. In the data set with Fusarium culmorum, the inhibition of growth at 20 ppm is not below 80%. In [3], the inhibition of growth at 20 ppm is not below 80%. For the same molecule, in data set [5], the inhibition of growth at 20 ppm is not below 80%.
